Assay [1] relates to Staphylococcus aureus. Nature of the assay: In vitro antimicrobial activity against methicillin resistant Staphylococcus aureus 27660. In kind it is functional.
Assay [2] in a line: In vitro antimicrobial activity against penicillin-intermediate Streptococcus pneumoniae 49619. In kind it is functional.
Assay [3] concerns Enterococcus faecalis. In words: In vitro antimicrobial activity against vancomycin-susceptible Enterococcus faecalis 29212. It is filed as functional.
Assay [4] has as its system Staphylococcus aureus. Nature of the assay: In vitro antimicrobial activity against MSSA 13709. In kind it is functional.
The test system of assay [5] is Bacillus cereus. Nature of the assay: In vitro antimicrobial activity against Bacillus cereus 11778. In kind it is functional.
The test system of assay [6] is Mus musculus. In words: Acute tolerability of compound in 4 ICR female mice after intravenous administration was determined; Lethality 1/4. It is filed as functional, organism-based.
The test system of assay [7] is Candida albicans. Nature of the assay: In vitro antimicrobial activity against Candida albicans 38247. It is filed as functional. To be noted: Candida albicans; read-out: MIC.
Assay [8] has as its target Nucleic Acid. In words: Apparent binding affinity against DNA (5'-ACAATTAA-3') was determined using DNase I footprinting titration method. It is filed as nucleic-acid assay. To be noted: read-out: Kd app.
For assay [9], the system named is Mus musculus. In words: Acute tolerability of compound […] female mice after intravenous administration was determined; Lethality 5/5. It is filed as functional, organism-based.
The nature of assay [10]: In vitro antimicrobial activity against penicillin resistant Streptococcus pneumoniae 51422. In kind it is functional.
Assay [11] has as its system Enterococcus faecalis. Nature of the assay: In vitro antimicrobial activity against vancomycin-resistant Enterococcus faecalis 51559. In kind it is functional.

pKd: −log10 of the molar value. In brackets after ≈: the same amount, converted by molar mass.

By MIC is commonly meant the lowest concentration found to suppress growth. For `Cn1cc(NC(=O)c2cc(NC(=O)c3cc(NC(=O)c4cc5ccccc5cn4)cn3C)cn2C)cc1C(=O)NCCN1CCC(F)CC1`, the MIC in [1] was 0.25 µg/mL (≈ 0.374 µM); in assay [2], 0.031 µg/mL (≈ 0.0464 µM); in [3] it was 0.125 µg/mL (≈ 0.188 µM).

In the case of `Cn1cc(NC(=O)c2cc(NC(=O)c3cc(NC(=O)c4cc5ccccc5cn4)cn3C)cn2C)cc1C(=O)NCCN1CCNCC1`, the MIC in assay [1] was 16 µg/mL (≈ 24.6 µM); in assay [2], > 32 µg/mL; in assay [3], > 32 µg/mL.

On to `COc1ccsc1-c1cc(C(=O)Nc2cc(C(=O)Nc3cc(C(=O)NCCN4CCOCC4)n(C)c3)n(C)c2)n(C)c1`, for which the MIC in assay [1] is 32 µg/mL (≈ 53.9 µM); in assay [2], > 32 µg/mL; in [3], > 32 µg/mL.

In the case of `Cc1ccsc1-c1cc(C(=O)Nc2cc(C(=O)Nc3cc(C(=O)NCCN4CCOCC4)n(C)c3)n(C)c2)n(C)c1`, the MIC stood at 16 µg/mL (≈ 27.7 µM) in [1], 4 µg/mL (≈ 6.92 µM) in assay [2] and 16 µg/mL (≈ 27.7 µM) in [3].

Turning to `Cc1c(-c2cc(C(=O)Nc3cc(C(=O)Nc4cc(C(=O)NCCN5CCOCC5)n(C)c4)n(C)c3)n(C)c2)oc2ccccc12`, the MIC in assay [1] is 8 µg/mL (≈ 13.1 µM); in [2], 2 µg/mL (≈ 3.27 µM); in [3] it was 16 µg/mL (≈ 26.2 µM).

With `Cn1cc(NC(=O)c2cc(NC(=O)c3cc(-c4cnc(O)c(Cl)c4)cn3C)cn2C)cc1C(=O)NCCN1CCOCC1`, the MIC in assay [1] was 8 µg/mL (≈ 13.1 µM); in assay [2], 0.5 µg/mL (≈ 0.821 µM); in assay [3], > 32 µg/mL.

As to `Cn1cc(NC(=O)c2cc(NC(=O)c3cc(-c4sccc4C#N)cn3C)cn2C)cc1C(=O)NCCN1CCOCC1`, the MIC in [1] is 4 µg/mL (≈ 6.79 µM); in [2] it was 0.5 µg/mL (≈ 0.849 µM); in [3], 2 µg/mL (≈ 3.4 µM).

For `Cn1cc(NC(=O)c2cc(NC(=O)c3cc(-c4ccc(F)cc4Cl)cn3C)cn2C)cc1C(=O)NCCN1CCOCC1`, the MIC in assay [4] turned out to be 16 µg/mL (≈ 26.2 µM); in [2] it was 4 µg/mL (≈ 6.56 µM); in assay [3], 8 µg/mL (≈ 13.1 µM).

Turning to `CN1CCN(CCNC(=O)c2cc(NC(=O)c3cc(NC(=O)c4cc(NC(=O)c5sccc5Cl)cn4C)cn3C)cn2C)CC1`, the results for the MIC in [1], in assay [2] and in assay [3] were 4 µg/mL (≈ 6.11 µM), 2 µg/mL (≈ 3.06 µM) and 32 µg/mL (≈ 48.9 µM), respectively.

Take `Cc1cccnc1-c1cc(C(=O)Nc2cc(C(=O)Nc3cc(C(=O)NCCN4CCOCC4)n(C)c3)n(C)c2)n(C)c1`: the figures for the MIC in assay [1], in [2] and in assay [3] were 18 µg/mL (≈ 31.4 µM), 1 µg/mL (≈ 1.75 µM) and 8 µg/mL (≈ 14 µM), respectively.

Turning to `Cn1cc(NC(=O)c2cc(NC(=O)c3cc(NC(=O)c4cn5ccsc5n4)cn3C)cn2C)cc1C(=O)NCCN1CCOCC1`, the MIC in assay [5] was 2 µg/mL (≈ 3.09 µM); in [2] it was 0.031 µg/mL (≈ 0.0479 µM); in assay [3], 0.5 µg/mL (≈ 0.773 µM); in [7], > 32 µg/mL. The Acute tolerability result in assay [6] is listed as “Lethality 1/4”.

What is called pKd is the Kd on a negative log10 scale, so that one unit is a factor of ten. For the compound `Cn1cc(NC(=O)c2cc(NC(=O)c3cc(NC(=O)c4sccc4Cl)cn3C)cn2C)cc1C(=O)NCCc1ccccn1`, the pKd in assay [8] is 7.00. Besides, the MIC in assay [1], in assay [2] and in assay [3] was 2 µg/mL (≈ 3.16 µM) in each case.

Regarding `CN1CCN(NC(=O)c2cc(NC(=O)c3cc(NC(=O)c4cc(NC(=O)c5cc6ccccc6cn5)cn4C)cn3C)cn2C)CC1`, the MIC in assay [1], in [2] and in [3] was 16 µg/mL (≈ 25.1 µM) each time.

Regarding `CN(C)CCCNC(=O)c1cc(NC(=O)c2cc(NC(=O)c3cc(NC(=O)c4cc5ccccc5cn4)cn3C)cn2C)cn1C`, the results for the MIC in [1], in [2] and in assay [3] were 4 µg/mL (≈ 6.41 µM), 1 µg/mL (≈ 1.6 µM) and 4 µg/mL (≈ 6.41 µM), respectively.

With `Cn1cc(NC(=O)c2cc(NC(=O)c3cc(-c4ccc5[nH]cnc5c4)cn3C)cn2C)cc1C(=O)NCCN1CCOCC1`, the results for the MIC in assay [1], in assay [2] and in [3] were > 32 µg/mL, > 8 µg/mL and > 32 µg/mL, respectively.

As to `Cc1cnc(-c2cc(C(=O)Nc3cc(C(=O)Nc4cc(C(=O)NCCN5CCOCC5)n(C)c4)n(C)c3)n(C)c2)cn1`, the MIC was found to be 1 µg/mL (≈ 1.74 µM) in [5]; 2 µg/mL (≈ 3.49 µM) in assay [1]; 0.25 µg/mL (≈ 0.436 µM) in assay [2]; 0.25 µg/mL (≈ 0.436 µM) in [10]; 0.5 µg/mL (≈ 0.872 µM) in assay [3]; 4 µg/mL (≈ 6.97 µM) in assay [11]. In addition, the MIC in assay [7] is > 32 µg/mL. Besides, the Acute tolerability result in assay [9] is given as “Lethality 5/5”.

On to `Cn1cc(NC(=O)c2cc(NC(=O)c3cc(NC(=O)c4sccc4Cl)cn3C)cn2C)cc1C(=O)NCCN1CCC(O)CC1`, for which the results for the minimal inhibitory concentration (MIC) in assay [1], in assay [2] and in assay [3] were 4 µg/mL (≈ 6.11 µM), 2 µg/mL (≈ 3.05 µM) and 4 µg/mL (≈ 6.11 µM), respectively.

In the case of `Cn1cc(NC(=O)c2cc(NC(=O)c3cc(NC(=O)c4cc5ccccc5cn4)cn3C)cn2C)cc1C(=O)NCCCN1CCCCC1`, the MIC was found to be 4 µg/mL (≈ 6.03 µM) in [1], 0.25 µg/mL (≈ 0.377 µM) in assay [2] and 4 µg/mL (≈ 6.03 µM) in [3].
